Laboratory results from ChEMBL document CHEMBL1201862, “PubChem BioAssay data set” (2004).
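Each compound was tested at five concentrations against cells in 96-well plates for 48 hours. GI50: concentration for 50% inhibition of growth.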 The source made the active and inactive calls. No stated cut-off is given here; in the data, active = GI50 up to about 1.1 µM and inactive = higher.

Columns and labels:
Assay in all cases: NCI tumour cell line growth inhibition, 48 h
ACHN = test system: ACHN
CCRF-CEM = test system: CCRF-CEM
COLO 205 = test system: COLO 205
HL-60 = test system: HL-60
LOX IMVI = test system: LOX IMVI
Malme-3M = test system: Malme-3M
NCI-H226 = test system: NCI-H226
NCI/ADR-RES = test system: NCI/ADR-RES
OVCAR-4 = test system: OVCAR-4
OVCAR-5 = test system: OVCAR-5
OVCAR-8 = test system: OVCAR-8
RXF 393 = test system: RXF 393
SF-268 = test system: SF-268
SF-539 = test system: SF-539
SK-MEL-2 = test system: SK-MEL-2
SK-OV-3 = test system: SK-OV-3
UACC-257 = test system: UACC-257
UACC-62 = test system: UACC-62
786-0 = test system: 786-0
SR = test system: SR

Row | SMILES | GI50 (ACHN) | GI50 (CCRF-CEM) | GI50 (COLO 205) | GI50 (HL-60) | GI50 (LOX IMVI) | GI50 (Malme-3M) | GI50 (NCI-H226) | GI50 (NCI/ADR-RES) | GI50 (OVCAR-4) | GI50 (OVCAR-5) | GI50 (OVCAR-8) | GI50 (RXF 393) | GI50 (SF-268) | GI50 (SF-539) | GI50 (SK-MEL-2) | GI50 (SK-OV-3) | GI50 (UACC-257) | GI50 (UACC-62) | GI50 (786-0) | GI50 (SR)
1 | Cc1c(/N=C/C=C/c2ccccc2)c(=O)n(-c2ccccc2)n1C | 29.8 µM (inactive) | 6.87 µM (inactive) | > 100 µM (inactive) | 16.1 µM (inactive) | 4.86 µM (inactive) | 25.4 µM (inactive) | 13.6 µM (inactive) | 25.9 µM (inactive) | 13 µM (inactive) | 58.9 µM (inactive) | 17.4 µM (inactive) | 39.7 µM (inactive) | 33.6 µM (inactive) | 23 µM (inactive) | 88.7 µM (inactive) | > 100 µM (inactive) | 45.3 µM (inactive) | 17.2 µM (inactive) |  | 
2 | O=S(=O)(/C=C/c1ccc(F)cc1)Cc1ccc(CS(=O)(=O)/C=C/c2ccc(F)cc2)cc1 | > 100 µM (inactive) | > 100 µM (inactive) | > 100 µM (inactive) | > 100 µM (inactive) | > 100 µM (inactive) | > 100 µM (inactive) | > 100 µM (inactive) |  | > 100 µM (inactive) | > 100 µM (inactive) | > 100 µM (inactive) | > 100 µM (inactive) | > 100 µM (inactive) | > 100 µM (inactive) | > 100 µM (inactive) | > 100 µM (inactive) | > 100 µM (inactive) | > 100 µM (inactive) | > 100 µM (inactive) | > 100 µM (inactive)
3 | COC(=O)c1cn(CCCC(=O)O)nn1 | > 100 µM (inactive) | > 100 µM (inactive) | > 100 µM (inactive) |  | > 100 µM (inactive) | > 100 µM (inactive) | > 100 µM (inactive) | > 100 µM (inactive) | > 100 µM (inactive) |  | > 100 µM (inactive) | > 100 µM (inactive) | > 100 µM (inactive) | > 100 µM (inactive) | > 100 µM (inactive) |  | > 100 µM (inactive) | > 100 µM (inactive) | > 100 µM (inactive) | 
4 | O=C(Nc1ccn(CCO)c(=O)n1)c1ccccc1 | > 100 µM (inactive) | > 100 µM (inactive) | > 100 µM (inactive) | > 100 µM (inactive) | > 100 µM (inactive) | > 100 µM (inactive) | > 100 µM (inactive) |  | > 100 µM (inactive) | > 100 µM (inactive) | > 100 µM (inactive) | > 100 µM (inactive) | > 100 µM (inactive) | > 100 µM (inactive) | > 100 µM (inactive) | > 100 µM (inactive) | > 100 µM (inactive) | > 100 µM (inactive) | > 100 µM (inactive) | > 100 µM (inactive)
5 | CCN(CC)c1ccc2cc(C(=O)Nc3ccccc3OC)c(=N)oc2c1 | 11.3 µM (inactive) | 2.89 µM (inactive) | 24.8 µM (inactive) | 7.5 µM (inactive) | 22.9 µM (inactive) | 32.3 µM (inactive) |  | 23.7 µM (inactive) | 27.5 µM (inactive) | 44.3 µM (inactive) | 3.61 µM (inactive) |  | 8.15 µM (inactive) | 46.6 µM (inactive) | 59.7 µM (inactive) | 72.3 µM (inactive) | 40.8 µM (inactive) | 25.2 µM (inactive) | 14.7 µM (inactive) | 5.16 µM (inactive)
6 | O=C(CCO)OCCCCCC/C=C\CCCCCC/C=C\CCCCCCCCOC(=O)CCO | 23.9 µM (inactive) | 3.05 µM (inactive) | > 100 µM (inactive) | 12.2 µM (inactive) | 18.4 µM (inactive) | 20.5 µM (inactive) |  | 17.9 µM (inactive) | 25.3 µM (inactive) | 18.3 µM (inactive) | 18.5 µM (inactive) | 18.9 µM (inactive) | 18.5 µM (inactive) | > 100 µM (inactive) | 17.3 µM (inactive) | 19.9 µM (inactive) | 17.2 µM (inactive) | 16.3 µM (inactive) | 18.5 µM (inactive) | 
7 | [N-]=[N+]=Nc1cc(=O)oc2ccccc12 | > 100 µM (inactive) | > 100 µM (inactive) | > 100 µM (inactive) | > 100 µM (inactive) | > 100 µM (inactive) | > 100 µM (inactive) | > 100 µM (inactive) |  | > 100 µM (inactive) | > 100 µM (inactive) | > 100 µM (inactive) | > 100 µM (inactive) | > 100 µM (inactive) | > 100 µM (inactive) | > 100 µM (inactive) | > 100 µM (inactive) | > 100 µM (inactive) | > 100 µM (inactive) | > 100 µM (inactive) | 48.9 µM (inactive)
8 | COc1cc(C2=C(C#N)C(N)OC3=C2COc2ccccc23)cc(OC)c1OC (configuration not stated) | 12.6 µM (inactive) | 0.938 µM (active) | > 100 µM (inactive) | > 100 µM (inactive) | 35.5 µM (inactive) | 11.9 µM (inactive) | 30.4 µM (inactive) | 25.2 µM (inactive) | 5.22 µM (inactive) | > 100 µM (inactive) |  |  | 14.9 µM (inactive) | 20.4 µM (inactive) | 28.5 µM (inactive) | 16.4 µM (inactive) | 31.3 µM (inactive) | 50.4 µM (inactive) |  | 19.5 µM (inactive)
9 | COc1cc2c(oc(=O)c3cc4ccoc4c(OC)c32)c2cccc(O)c12 | > 100 µM (inactive) | > 100 µM (inactive) | > 100 µM (inactive) | > 100 µM (inactive) | > 100 µM (inactive) | > 100 µM (inactive) | > 100 µM (inactive) |  | > 100 µM (inactive) | > 100 µM (inactive) | > 100 µM (inactive) | > 100 µM (inactive) | > 100 µM (inactive) | > 100 µM (inactive) | > 100 µM (inactive) | > 100 µM (inactive) | > 100 µM (inactive) | > 100 µM (inactive) | > 100 µM (inactive) | > 100 µM (inactive)
10 | COC(=O)C(C(=O)C(N)=O)c1csc(-n2nc(-c3ccccc3)cc2-c2ccccc2)n1 (configuration not stated) | > 31.6 µM (inactive) | 25.1 µM (inactive) | 26.8 µM (inactive) | 26.1 µM (inactive) | > 88.1 µM (inactive) | > 31.6 µM (inactive) | 20.9 µM (inactive) |  | > 31.6 µM (inactive) | > 100 µM (inactive) | 30.4 µM (inactive) | > 31.6 µM (inactive) | > 31.6 µM (inactive) | > 31.6 µM (inactive) | > 31.6 µM (inactive) | > 31.6 µM (inactive) | 19.8 µM (inactive) | > 31.6 µM (inactive) | > 31.6 µM (inactive) | > 10 µM (inactive)
11 | C=CCN(CCN(CC=C)S(=O)(=O)c1ccc(C)cc1)S(=O)(=O)c1ccc(C)cc1 | > 100 µM (inactive) | > 100 µM (inactive) | > 100 µM (inactive) |  | 55.1 µM (inactive) |  | > 100 µM (inactive) | > 100 µM (inactive) | > 100 µM (inactive) |  | > 100 µM (inactive) | > 100 µM (inactive) | > 100 µM (inactive) |  |  |  | > 100 µM (inactive) |  |  | > 100 µM (inactive)
12 | N#CCCN(CCCN(C(=O)N(c1ccccc1)c1ccccc1)c1ccccc1)C(=O)Nc1ccccc1 | 93.3 µM (inactive) | 15.9 µM (inactive) | > 10 µM (inactive) | 8.91 µM (inactive) | > 100 µM (inactive) | > 100 µM (inactive) | > 100 µM (inactive) | 30.1 µM (inactive) | 95.1 µM (inactive) | > 100 µM (inactive) | 21.5 µM (inactive) | > 100 µM (inactive) | > 100 µM (inactive) | > 100 µM (inactive) | > 100 µM (inactive) | > 100 µM (inactive) | 74 µM (inactive) | > 100 µM (inactive) | > 100 µM (inactive) | 
13 | O=[N+]([O-])c1ccc(/C=N\N=c2/ccc([N+](=O)[O-])c[nH]2)cc1 | > 100 µM (inactive) | > 100 µM (inactive) | > 100 µM (inactive) | > 100 µM (inactive) |  | > 100 µM (inactive) | > 100 µM (inactive) | > 100 µM (inactive) | > 100 µM (inactive) | > 100 µM (inactive) | > 100 µM (inactive) | > 100 µM (inactive) | > 100 µM (inactive) | 32.6 µM (inactive) | > 100 µM (inactive) | 86.9 µM (inactive) | > 100 µM (inactive) | > 100 µM (inactive) | > 100 µM (inactive) | 
14 | CO[C@]12CC(=O)C3(C(C[C@H]4CC5CC=C6C[C@@H](OC(C)=O)CC[C@]6(OC(C)=O)C5C[C@@]43C)C1)C1C[C@H]3[C@@H]4CC=C5C[C@@H](OC(C)=O)CC[C@]5(OC(C)=O)[C@H]4CC[C@]3(C)C12 (some centres not stated) | 22.9 µM (inactive) | 74 µM (inactive) | 3.1 µM (inactive) | 14.9 µM (inactive) | 18.9 µM (inactive) | 18.5 µM (inactive) |  | 14 µM (inactive) | 4.5 µM (inactive) | 21.7 µM (inactive) | 24.1 µM (inactive) |  | 56.9 µM (inactive) | 19.6 µM (inactive) | 18.1 µM (inactive) | 62.1 µM (inactive) | 23.6 µM (inactive) | 20.4 µM (inactive) | 19.8 µM (inactive) | 5.66 µM (inactive)
15 | O=C(CCN1CCCCC1)Nc1ccc2sc3ccccc3c(=O)c2n1 | 10.2 µM (inactive) | 7.91 µM (inactive) | 8.32 µM (inactive) | 3.89 µM (inactive) | 10.3 µM (inactive) | 28 µM (inactive) |  | 7.67 µM (inactive) | 16 µM (inactive) | 18.2 µM (inactive) | > 10 µM (inactive) |  | 16.3 µM (inactive) | 15.3 µM (inactive) | > 10 µM (inactive) | 23.2 µM (inactive) | 19.7 µM (inactive) | 14.5 µM (inactive) | 11.8 µM (inactive) | 12.2 µM (inactive)
